Target: T1, PKA regulatory subunit R1Alpha (R1A) (Rattus norvegicus, UniProt P09456)
T1 construct: gene Prkar1a; endogenous detergent-insoluble R1A clusters in P30 rat CA1 brain sections
Experiment: saturation equilibrium binding in fixed brain sections, confocal fluorescence microscopy

T1 sequence (P09456 2-381): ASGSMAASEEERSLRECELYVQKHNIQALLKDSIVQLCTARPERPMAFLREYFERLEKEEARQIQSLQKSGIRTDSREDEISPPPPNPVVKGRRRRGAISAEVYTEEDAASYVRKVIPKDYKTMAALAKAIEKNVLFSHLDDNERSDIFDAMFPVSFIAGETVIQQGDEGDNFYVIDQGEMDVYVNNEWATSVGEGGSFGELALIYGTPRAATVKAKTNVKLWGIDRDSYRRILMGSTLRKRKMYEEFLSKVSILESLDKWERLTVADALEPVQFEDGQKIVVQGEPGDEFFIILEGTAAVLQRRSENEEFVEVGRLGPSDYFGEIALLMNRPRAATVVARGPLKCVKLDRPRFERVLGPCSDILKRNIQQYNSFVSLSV

Kd: 23.5 nM
Compound: Nc1ncnc2c1nc(SCC(=O)Nc1ccc3c(c1)C(=O)OC31c3ccc(O)cc3Oc3cc(O)ccc31)n2[C@@H]1O[C@@H]2COP(=O)(O)O[C@H]2[C@H]1O [SAF-cAMP, 8-(5-thioacetamidofluorescein)-adenosine 3′,5′-cyclic monophosphate]
